Where “and” joins values, the source holds several entries; their conditions need not be identical. Identical values can stand only once.
What was measured:
[1] = target: T1, Tyrosine-protein kinase Mer (Homo sapiens) (UniProt Q12866); conditions: at 10 µM
T1 sequence (whole entry): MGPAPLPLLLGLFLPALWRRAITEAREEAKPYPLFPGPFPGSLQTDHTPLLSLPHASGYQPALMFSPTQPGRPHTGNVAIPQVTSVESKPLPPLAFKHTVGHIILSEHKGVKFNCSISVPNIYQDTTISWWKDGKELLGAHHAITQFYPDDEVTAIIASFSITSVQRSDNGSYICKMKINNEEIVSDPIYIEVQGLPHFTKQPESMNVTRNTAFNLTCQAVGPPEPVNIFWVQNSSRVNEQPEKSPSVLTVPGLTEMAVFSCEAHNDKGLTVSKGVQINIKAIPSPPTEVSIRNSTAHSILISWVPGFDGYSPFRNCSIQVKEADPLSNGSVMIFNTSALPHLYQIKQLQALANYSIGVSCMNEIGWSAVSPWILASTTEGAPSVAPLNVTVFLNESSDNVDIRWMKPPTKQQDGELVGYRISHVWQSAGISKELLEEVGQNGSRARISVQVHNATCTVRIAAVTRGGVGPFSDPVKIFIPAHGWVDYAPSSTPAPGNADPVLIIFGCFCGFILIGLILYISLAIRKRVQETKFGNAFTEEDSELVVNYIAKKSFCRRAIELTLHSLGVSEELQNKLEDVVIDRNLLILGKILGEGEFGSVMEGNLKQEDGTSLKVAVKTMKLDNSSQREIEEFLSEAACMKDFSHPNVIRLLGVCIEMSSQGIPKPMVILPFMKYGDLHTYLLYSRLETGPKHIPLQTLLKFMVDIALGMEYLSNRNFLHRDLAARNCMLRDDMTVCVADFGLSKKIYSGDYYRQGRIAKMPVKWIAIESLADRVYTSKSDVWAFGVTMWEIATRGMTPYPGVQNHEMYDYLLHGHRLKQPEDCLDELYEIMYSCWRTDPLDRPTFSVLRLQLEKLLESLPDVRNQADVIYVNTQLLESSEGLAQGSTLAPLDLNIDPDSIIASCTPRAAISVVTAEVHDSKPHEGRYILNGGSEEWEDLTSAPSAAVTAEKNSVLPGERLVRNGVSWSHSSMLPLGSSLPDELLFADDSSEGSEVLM

[2] = target: T2, Serine/threonine-protein kinase TBK1 (Homo sapiens) (UniProt Q9UHD2); conditions: at 1 µM
T2 sequence (whole entry): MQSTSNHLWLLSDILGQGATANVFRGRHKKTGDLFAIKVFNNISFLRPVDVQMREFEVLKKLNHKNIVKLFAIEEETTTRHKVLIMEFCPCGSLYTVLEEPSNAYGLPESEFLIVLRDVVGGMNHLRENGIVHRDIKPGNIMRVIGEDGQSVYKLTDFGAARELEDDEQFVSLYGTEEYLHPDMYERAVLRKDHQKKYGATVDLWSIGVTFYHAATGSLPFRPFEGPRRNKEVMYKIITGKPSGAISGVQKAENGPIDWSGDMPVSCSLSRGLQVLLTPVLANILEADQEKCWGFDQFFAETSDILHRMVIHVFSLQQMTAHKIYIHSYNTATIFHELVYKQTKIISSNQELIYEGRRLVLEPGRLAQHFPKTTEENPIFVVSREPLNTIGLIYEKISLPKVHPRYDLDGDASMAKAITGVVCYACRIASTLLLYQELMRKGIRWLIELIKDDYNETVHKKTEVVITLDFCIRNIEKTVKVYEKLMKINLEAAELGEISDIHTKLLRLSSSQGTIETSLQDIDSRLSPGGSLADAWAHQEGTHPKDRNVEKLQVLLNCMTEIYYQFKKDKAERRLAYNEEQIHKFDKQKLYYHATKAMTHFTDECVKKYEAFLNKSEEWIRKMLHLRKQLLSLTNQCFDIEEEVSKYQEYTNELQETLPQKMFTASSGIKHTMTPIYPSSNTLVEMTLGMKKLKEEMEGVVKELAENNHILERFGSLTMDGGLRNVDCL

[3] = target: T3, Inhibitor of nuclear factor kappa-B kinase subunit beta (Homo sapiens) (UniProt O14920); conditions: at 1 µM
T3 sequence (whole entry): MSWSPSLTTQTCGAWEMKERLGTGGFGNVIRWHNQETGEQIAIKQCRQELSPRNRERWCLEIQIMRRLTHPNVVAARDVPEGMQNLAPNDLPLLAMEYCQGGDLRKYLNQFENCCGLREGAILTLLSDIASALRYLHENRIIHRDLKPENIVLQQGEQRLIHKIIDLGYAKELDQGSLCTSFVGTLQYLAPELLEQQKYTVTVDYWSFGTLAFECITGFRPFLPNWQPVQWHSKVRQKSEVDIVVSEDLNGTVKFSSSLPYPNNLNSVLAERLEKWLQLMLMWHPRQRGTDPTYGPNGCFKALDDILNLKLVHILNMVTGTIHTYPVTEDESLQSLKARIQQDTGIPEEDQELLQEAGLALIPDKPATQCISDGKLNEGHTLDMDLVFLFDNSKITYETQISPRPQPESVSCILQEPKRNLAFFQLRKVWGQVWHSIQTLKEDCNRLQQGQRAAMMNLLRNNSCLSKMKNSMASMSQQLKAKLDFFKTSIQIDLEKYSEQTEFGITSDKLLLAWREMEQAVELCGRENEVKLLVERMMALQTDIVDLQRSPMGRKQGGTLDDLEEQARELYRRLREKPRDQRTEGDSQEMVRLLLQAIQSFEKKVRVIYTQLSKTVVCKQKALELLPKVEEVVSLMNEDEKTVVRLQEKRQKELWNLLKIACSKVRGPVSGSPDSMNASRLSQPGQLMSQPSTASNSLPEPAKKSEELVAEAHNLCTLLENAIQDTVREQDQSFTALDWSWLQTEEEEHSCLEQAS

inhibition [1] [%]	inhibition [2]	inhibition [3]	Structure (SMILES)
-10	-5% and -7%	-3% and -1%	CC(C)c1ccc(-c2cc(-c3c[nH]nc3-c3ccccn3)ccn2)cc1
1	40% and 43%	-5% and -4%	O=C1Nc2ccc(-c3cccnc3)cc2C1=Cc1cc(Br)c(O)c(Br)c1
1	3% and 0%	-4% and -2%	CC(=O)Nc1cccc(C#Cc2cncnc2Nc2ccc(OCc3cccc(F)c3)c(Cl)c2)n1
-1	-3% and -2%	-7% and -4%	COc1cc2ncn(-c3cc(OCc4ccccc4C(F)(F)F)c(C(C)=O)s3)c2cc1OC
-1	18%	-5% and -4%	CN(c1ccc(NC(=O)Nc2ccc(OC(F)(F)F)cc2)cc1)c1ccnc(Nc2cccc(S(N)(=O)=O)c2)n1
67	23% and 19%	-6% and -4%	COc1cc2c(cc1Nc1nc(Nc3ccsc3C(N)=O)c3cc[nH]c3n1)N(C(=O)CN(C)C)CCC2
-4	19% and 17%	-3% and -5%	CN(c1ccc(NC(=O)Nc2c(Cl)cccc2Cl)cc1)c1ccnc(Nc2cccc(CS(C)(=O)=O)c2)n1
0	8% and 20%	-2% and -6%	COc1ccc(Nc2ncc(-c3ccccc3)o2)cc1OC
31	0% and 3%	-2%	Fc1ccc(-c2ncn(C3CCNCC3)c2-c2ccnc(Oc3ccccc3)n2)cc1
-9	0% and 3%	0% and -4%	COc1cc(Nc2ncc(-c3ccccc3)o2)cc(OC)c1
8	-3% and -1%	0% and 6%	CCc1cccc(NC(=O)Nc2ccc(Oc3ccc4nc(NC(=O)OC)[nH]c4c3)cc2)c1
47	-2% and -5%	-3%	CC1=C(C(=O)Nc2ccc3[nH]ncc3c2)C(c2ccc3ccccc3c2)CC(=O)N1 (stereo not given)
11	-3% and 0%	-7% and -3%	NS(=O)(=O)c1ccc(-c2ccc3c(NC(=O)C4CC4)n[nH]c3c2)cc1
-4	-1% and -2%	-4%	Cc1nnc(-c2cccc(-c3ccc(C(=O)NCC4CC4)cc3)c2)o1
5	-3% and -2%	-2% and -5%	COc1ccc(COc2ccc(Cc3cnc(N)nc3N)cc2OC)cc1
1	-2% and -4%	-5% and 2%	FC(F)(F)CNc1nccc(-c2cnn3ncccc23)n1
-3	29% and 33%	-4%	c1cnn2ncc(-c3ccnc(Nc4ccc5c(c4)OCCO5)n3)c2c1
3	-1%	1% and 0%	Oc1cccc(-c2nc(-c3ccccc3)[nH]c2-c2ccncc2)c1
57	-2% and -5%	-4% and -5%	OCCCNc1nccc(-c2c(-c3ccc(F)cc3)nn3cc(C(F)(F)F)ccc23)n1
27	-5% and -4%	-5% and -2%	c1ccc(Oc2ccc(Nc3ncc(-c4ccccc4)o3)cc2)cc1
3	-2% and -3%	-2% and -4%	Cc1ccc(-c2cc3c(NC(=O)C4CC4)ncnc3o2)cc1
-4	2% and 0%	-2% and -6%	O=C(Nc1n[nH]c2cc(-c3ccccc3)ccc12)C1CC1

Second part, the compound before the results:

Structure (SMILES)	inhibition [1] [%]	inhibition [2]	inhibition [3]
NC(=O)c1sc(-n2cnc3cc(C(F)(F)F)ccc32)cc1OCc1ccccc1Br	6	3% and 6%	-4% and -3%
CS(=O)(=O)Nc1ccc(N/C=C2\C(=O)Nc3ccccc32)cc1	2	29% and 20%	-1% and -4%
O=C(Nc1n[nH]c2nc(-c3ccco3)c(Br)cc12)C1CC1	83	18% and 25%	-5% and -1%
CS(=O)(=O)CCNCc1ccoc1-c1ccc2ncnc(Nc3ccc(OCc4ccccc4)cc3)c2c1	88	5% and 2%	5% and 4%
NS(=O)(=O)c1ccc(N/N=C2\C(=O)Nc3ccc4ncccc4c32)cc1	-1	76% and 77%	-9% and -6%
COc1ccc(-c2cc(-c3c[nH]nc3-c3ccccn3)ccn2)cc1	-5	-4% and -2%	-7% and -8%
NS(=O)(=O)c1ccc(Nc2cc(-c3cccc(O)c3)n[nH]2)cc1	2	-4% and -2%	-3% and -2%
CCn1c(-c2nonc2N)nc2ccccc21	59	-2% and -3%	-5% and -4%
Nc1ncnc2occ(-c3ccc(NC(=O)Nc4cc(C(F)(F)F)cc(C(F)(F)F)c4)cc3)c12	2	-3% and -6%	-4%
CCCN1CCC=C(c2ccc(Nc3nc(Nc4ccccc4C(N)=O)c4cc[nH]c4n3)c(C)c2)C1	10	28% and 24%	-3% and -1%
NCc1ccc(-c2nc(-c3ccc(Cl)c(O)c3)c(-c3ccncc3)[nH]2)cc1	0	14% and 16%	2%
CCN1CCC(CC(=O)Nc2n[nH]c3nnc(-c4cccc(F)c4F)cc23)CC1	9	0%	-2% and -1%
[O-][S+]1CCN(Cc2ccc(-c3ccc4ncnc(Nc5ccc(OCc6cccc(F)c6)c(Cl)c5)c4c3)o2)CC1	67	7% and 0%	2% and 3%
NC(=O)c1ccc(Oc2nccc(-c3c(-c4ccc(F)cc4)ncn3C3CCNCC3)n2)cc1	3	5% and 4%	0%
CC(C)=Cc1cccc2c1/C(=N/Nc1ccc(S(N)(=O)=O)cc1)C(=O)N2	68	46% and 45%	-1% and 0%
CCn1c(-c2nonc2N)nc2c(C#CC(C)(C)O)ncc(OC3CCNCC3)c21	-5	55% and 57%	-4%
COc1cccc(-c2c[nH]c3c(N/N=C/c4ccncc4)ncnc23)c1	85	74% and 76%	-3% and -6%
Cn1cc(C=C2C(=O)Nc3cccnc32)c2ccccc21	-6	17% and 18%	-5% and 0%
